Active and inactive are the calls of the source. No rule for the calls is given here.

For this experiment, the target named is Ubiquitin-conjugating enzyme E2 N (Homo sapiens) (UniProt P61088). Put plainly: NMR detection of UBE2N ligand binding – biophysical, purified protein (AID 1552). Conditions: NMR binding to purified UBE2N.
Chain of Ubiquitin-conjugating enzyme E2 N (Homo sapiens) (P61088 whole entry, looked up): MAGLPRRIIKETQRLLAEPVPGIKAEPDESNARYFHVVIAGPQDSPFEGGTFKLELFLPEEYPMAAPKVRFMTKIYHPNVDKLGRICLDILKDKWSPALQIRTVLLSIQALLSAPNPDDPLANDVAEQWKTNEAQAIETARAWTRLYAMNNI
Regarding `O=C(Cc1c(F)cccc1Cl)Nc1ccon1`, the Kd is > 4 mM (inactive).
`CCCCN1C(=O)C2CC/C(=N/O)CC2C1=O` (configuration not stated): the Kd was > 4 mM (inactive).
Then `O=C(c1cccc(-n2cnnn2)c1)N1CCOCC1`, with > 4 mM (inactive); and `O=C(O)CCCCCCCCCCCCC1C=CCC1` (configuration not stated), with > 4 mM (inactive).
Then `O=C(O)CCc1nc2ccccc2[nH]c1=O`, with > 4 mM (inactive).
The figure for `c1ccc2[nH]c(-c3cscn3)nc2c1` is > 4 mM (inactive).
Consider `S=c1nc(Cc2ccccc2)[nH][nH]1`, for which the Kd is > 4 mM (inactive).
The figure for `Nc1ccc2c(c1)CCC2=O` is > 4 mM (inactive); for `O=C(c1ccco1)N1CCNCC1` it is > 4 mM (inactive); for `COc1ccc(-c2cc(=O)c3cc(OC)ccc3o2)cc1` it is > 4 mM (inactive).
Then `Cc1cc(=O)[nH]c2ccccc12`, with > 4 mM (inactive); and `CC(=O)N1CN(C(C)=O)CN(C(C)=O)C1`, with > 4 mM (inactive); and `N=Nc1c(O)[nH]c2ccccc12`, with > 4 mM (inactive).
For the compound `C=C1C(=O)OC2CC1C(OC(C)=O)C/C(C)=C/CC/C(C)=C/CC[C@]2(C)O` (some centres not stated), the Kd was > 4 mM (inactive).
With `Nc1cccc2nonc12`, the Kd was > 4 mM (inactive).
Then `Cc1nc(-c2cccc(-c3noc(C)n3)c2)no1`, with > 4 mM (inactive); and `O=c1nc(C(F)(F)F)nc2ccccn12`, with > 4 mM (inactive); and `NCc1ccc2sccc2c1`, with > 4 mM (inactive).
Take `CSc1cccc(NC(=O)c2c(Cl)cnn2C)c1`: the Kd is > 4 mM (inactive).
`CCOC(=O)Nc1ccc2c(C)cc(=O)oc2c1`: the Kd was > 4 mM (inactive).
The figure for `O=C(Nc1nnc(-c2ccco2)o1)c1ccc([N+](=O)[O-])o1` is > 4 mM (inactive).
Take `CCOC(=O)c1c(C)cc(O)c(C)c1O`: the Kd is > 4 mM (inactive).
On to `CS(C)=C1C(=O)NC(=O)N(Cc2ccc(F)cc2)C1=O`, for which the Kd was > 4 mM (inactive).
Then `Cc1nnc2ccc(N3CCCC3)nn12`, with > 4 mM (inactive).
The figure for `NC(=O)CS(=O)(=O)c1ccc2ccccc2c1` is > 4 mM (inactive).
The figure for `Cc1ccc(NC(=O)C(=O)Nc2ccccn2)cc1` is > 4 mM (inactive); for `NC(=O)c1ccsc1NC(=O)c1ccco1` it is > 4 mM (inactive); for `CC(=O)N1C(=S)NC(=O)/C1=C\c1cccnc1` it is > 4 mM (inactive).
For `c1ccc2[nH]c(NCCN3CCOCC3)nc2c1`, the Kd was > 4 mM (inactive).
Then `Cn1c(SCC(N)=O)nnc1-c1c[nH]c2ccccc12`, with > 4 mM (inactive); and `O=C(Nc1cccnc1)c1c(F)cccc1F`, with > 4 mM (inactive); and `COC(=O)C1CCN(c2ccc(Cl)nn2)CC1`, with > 4 mM (inactive).
Then `COc1cc2ccc(=O)oc2c(OC)c1OC`, with > 4 mM (inactive); and `O=C(Nc1ccon1)c1csc2c1CCCC2`, with > 4 mM (inactive); and `NC(=O)c1ccc(C(N)=O)cc1`, with > 4 mM (inactive).
The figure for `O=C1C2=C(SCCS2)C(=O)N1CCCO` is > 4 mM (inactive).
In the case of `O=C(/C=C1\SC(=O)NC1=O)NCc1ccccc1`, the Kd is > 4 mM (inactive).
Then `COc1c(F)c(F)c(-c2csc(N)n2)c(F)c1F`, with > 4 mM (inactive); and `CC1(C)C2CC[C@]3(C)C(C(=O)C=C4[C@@H]5C[C@@](C)(C(=O)O)CC[C@]5(C)CC[C@]43C)[C@@]2(C)CC[C@@H]1O` (some centres not stated), with > 4 mM (inactive).
In the case of `COc1ccccc1NC(=O)CCC(=O)O`, the Kd is > 4 mM (inactive).
As for `O=C(O)c1ccccc1C(=O)NCC1CCCO1` (configuration not stated), the Kd is > 4 mM (inactive).
As for `O=C(O)CC1C(=O)NCCN1Cc1ccccc1` (configuration not stated), the Kd was > 4 mM (inactive).
Then `OCc1ccc(-c2cccs2)s1`, with > 4 mM (inactive); and `Cn1c(=O)n(CC(=O)Nc2cccnc2)c2ccccc21`, with > 4 mM (inactive).
Then `CCN(CC)C(=O)c1n[nH]c(=O)c2ccccc12`, with > 4 mM (inactive); and `COc1c(-c2coc3cc4c(cc3c2=O)CC(OC(C)=O)C(C)(C)O4)ccc2c1C=CC(C)(C)O2` (configuration not stated), with > 4 mM (inactive); and `NCc1csc2ccccc12`, with > 4 mM (inactive).
For the compound `COc1cc2c(cc1OC)Cc1cc(OC)c(OC)cc1Cc1cc(OC)c(OC)cc1C2`, the Kd is > 4 mM (inactive).
Then `C=C[C@@]1(C)CC(=O)[C@@]2(O)[C@](C)(O1)[C@@H](OC(C)=O)[C@@H](O)C1C(C)(C)CC[C@H](O)[C@@]12C` (some centres not stated), with > 4 mM (inactive); and `Cn1ccnc1SCc1cc(=O)[nH]c2ccccc12`, with > 4 mM (inactive); and `Nc1ccc2c(c1)OCCO2`, with > 4 mM (inactive).
Then `N#CCSc1nc(-c2ccccc2)cs1`, with > 4 mM (inactive); and `Cc1ccccc1OCC(=O)O`, with > 4 mM (inactive); and `COc1ccc2c(c1)OC[C@@H](Cc1ccc(OC)c(OC)c1)[C@@H]2O`, with > 4 mM (inactive).
The figure for `Cc1cc(C)n2nc(NCc3ccccc3)nc2n1` is > 4 mM (inactive); for `OC/C=C/c1ccc(O)c(O)c1` it is > 4 mM (inactive); for `O=C1CSC(=O)N1CN1CCOCC1` it is > 4 mM (inactive).
On to `O=C1CNCc2[nH]c3ccccc3c2N1c1ccccc1`, for which the Kd was > 4 mM (inactive).
On to `CC(C)c1c(O)ccc2c1CCC1[C@@](C)(CO)CCC[C@]21C` (some centres not stated), for which the Kd was > 4 mM (inactive).
Regarding `CCCCCCCCCCCCCc1ccco1`, the Kd is > 4 mM (inactive).
The figure for `CCOc1ccc(C(=O)c2ccc(O)c(O)c2O)cc1` is > 4 mM (inactive); for `COc1ccc(-c2cn[nH]c2N)c(OC)c1` it is > 4 mM (inactive).
Then `O=C(C1CCCCC1)N1CCN(c2ccccc2F)CC1`, with > 4 mM (inactive); and `O=C1CCC(=O)N1CN1CCOCC1`, with > 4 mM (inactive).
Then `CC1(C)CC2C1CCC1(C)OC2(C)CCC1O` (configuration not stated), with > 4 mM (inactive).
On to `CN(C)N1C(=O)c2ccccc2C1=O`, for which the Kd is > 4 mM (inactive).
The figure for `NC(=O)C1CCN(C2CC(=O)NC2=O)CC1` (configuration not stated) is > 4 mM (inactive).
Then `CC(=O)OC1CCC2(C)C(=CC=C3C2CCC2(C)C3CCC2C(C)/C=C/C(C)C(C)C)C1(C)C` (configuration not stated), with > 4 mM (inactive); and `Nc1cccc(OC(F)(F)F)c1`, with > 4 mM (inactive).
Then `C[N+](C)(C)CC(=O)[O-]`, with > 4 mM (inactive).
Regarding `Cc1ccc(/C=N/n2c(C)nnc2C)cc1`, the Kd was > 4 mM (inactive).
Turning to `O=C1c2ccccc2C(=O)N1Cc1ccco1`, the Kd was > 4 mM (inactive).
The figure for `NC(=O)CSc1nc2ccccc2[nH]1` is > 4 mM (inactive); for `COC(=O)c1ccc2nccnc2c1` it is > 4 mM (inactive); for `Nc1ncc2[nH]cnc2n1` it is > 4 mM (inactive).
The figure for `Nc1ccc(-c2cnco2)cc1` is > 4 mM (inactive).
For `CC(=O)c1ccc(-n2ccnc2)cc1`, the Kd was > 4 mM (inactive).
Turning to `NC(=O)NC(=O)Nc1ccc(Cl)cc1`, the Kd was > 4 mM (inactive).
As for `Cc1ccc(NC(=O)CC2NCCNC2=O)c(C)c1` (configuration not stated), the Kd was > 4 mM (inactive).
Then `COC(=O)NCc1cc2cc(Cl)ccc2[nH]1`, with > 4 mM (inactive); and `NC1=NC(=O)/C(=C\c2cccc(C(=O)O)c2)S1`, with > 4 mM (inactive).
The figure for `NCc1ccc(-c2csnn2)cc1` is > 4 mM (inactive); for `NC1=NC(=O)CC(C(=O)Nc2ccccc2)S1` (configuration not stated) it is > 4 mM (inactive); for `COCCn1c(N)nc2c1c(=O)[nH]c(=O)n2C` it is > 4 mM (inactive).
The figure for `CNc1nc(SC)nc(N2CCOCC2)n1` is > 4 mM (inactive); for `NC(=O)c1cn(-c2ccccc2)nc1-c1cccnc1` it is > 4 mM (inactive).
For the compound `N#CCc1nc2ccccc2s1`, the Kd is > 4 mM (inactive).
Then `CN1CCC(N2CCOCC2)CC1`, with > 4 mM (inactive).
The figure for `CC(=O)Nc1ccc2c(c1)C(=O)N(C1CCCCC1)C2=O` is > 4 mM (inactive); for `COc1ccccc1/C=C/CN1CCOCC1` it is > 4 mM (inactive); for `CC1SC(=NC(=O)c2ccncc2)NC1=O` (configuration not stated) it is > 4 mM (inactive).
Take `COc1cc([C@@H]2c3cc4c(cc3[C@H](OC(C)=O)[C@H]3COC(=O)[C@H]23)OCO4)cc(OC)c1OC`: the Kd is > 4 mM (inactive).
The figure for `O=C1CCCN1C(=O)c1ccc(F)cc1` is > 4 mM (inactive).
The figure for `O=C(/C=C/C=C/c1ccc2c(c1)OCO2)N1CCCCC1` is > 4 mM (inactive); for `Cc1cc(NC(=O)c2cnn3cccnc23)no1` it is > 4 mM (inactive).
Take `NC(=S)CN1CCCC1=O`: the Kd is > 4 mM (inactive).
The figure for `CC(=O)c1c(C)nc(C)nc1NC(=O)C(C)C` is > 4 mM (inactive); for `Cc1ccc(NC(=O)c2ccccc2)s1` it is > 4 mM (inactive); for `CC(=O)Nc1nc(C)nc(-c2ccccc2)c1C(C)=O` it is > 4 mM (inactive).
With `Nn1c(CN2CCCCC2)nc2ccccc2c1=O`, the Kd was > 4 mM (inactive).
The figure for `O=C(Nc1cccc2ncccc12)c1cccnc1` is > 4 mM (inactive); for `O=C(NCCO)c1ccccc1I` it is > 4 mM (inactive); for `O=C(O)CCCN1CNC(=S)NC1` it is > 4 mM (inactive).
Consider `Cc1cc(=O)[nH]c(N2CCN(Cc3ccccc3)CC2)n1`, for which the Kd is > 4 mM (inactive).
Then `Cc1nnc(SCc2ccon2)n1-c1ccccc1`, with > 4 mM (inactive); and `CCN1C(=O)c2cccc3c(S(N)(=O)=O)ccc1c23`, with > 4 mM (inactive).
The figure for `CCOC(=O)C1CN(C)CCN1C` (configuration not stated) is > 4 mM (inactive).

What is called Kd is a measure of binding affinity in units of concentration.
